ChEMBL document CHEMBL1201862, “PubChem BioAssay data set” (2004)
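Tested at 5 concentrations; 48 h exposure; 96-well plates; endpoints linearly interpolated, else capped at highest concentration. GI50 = concentration required for 50% inhibition of growth.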 Active and inactive are the calls of the source. No stated cut-off is given here; in the data, active = GI50 up to about 1.1 µM and inactive = higher.

Columns and labels:
Experiment in all cases: growth of human tumour cells (NCI), 48 h
SN12C = test system: SN12C
MOLT-4 = test system: MOLT-4
MDA-N = test system: MDA-N
HCT-116 = test system: HCT-116
U-251 = test system: U-251
SW-620 = test system: SW-620
SF-295 = test system: SF-295
EKVX = test system: EKVX
NCI-H226 = test system: NCI-H226
CAKI-1 = test system: CAKI-1
IGROV-1 = test system: IGROV-1
HL-60 = test system: HL-60
DU-145 = test system: DU-145
M14 = test system: M14
CCRF-CEM = test system: CCRF-CEM
HOP-62 = test system: HOP-62
RXF 393 = test system: RXF 393
ACHN = test system: ACHN
NCI-H522 = test system: NCI-H522

Compound	GI50 (SN12C)	GI50 (MOLT-4)	GI50 (MDA-N)	GI50 (HCT-116)	GI50 (U-251)	GI50 (SW-620)	GI50 (SF-295)	GI50 (EKVX)	GI50 (NCI-H226)	GI50 (CAKI-1)	GI50 (IGROV-1)	GI50 (HL-60)	GI50 (DU-145)	GI50 (M14)	GI50 (CCRF-CEM)	GI50 (HOP-62)	GI50 (RXF 393)	GI50 (ACHN)	GI50 (NCI-H522)
Cn1c(-c2ccccc2)cc(-c2cccs2)c1-c1ccsc1	> 100 µM (inactive)	> 100 µM (inactive)	> 100 µM (inactive)	61.5 µM (inactive)	> 100 µM (inactive)	> 100 µM (inactive)	> 100 µM (inactive)	> 100 µM (inactive)	> 100 µM (inactive)	> 100 µM (inactive)	> 100 µM (inactive)	> 100 µM (inactive)	> 100 µM (inactive)	> 100 µM (inactive)	> 100 µM (inactive)	> 100 µM (inactive)	> 100 µM (inactive)	> 100 µM (inactive)	–
O=C1c2ccccc2C(=O)c2nn(N=P(CP(=Nn3nc4c(n3)C(=O)c3ccccc3C4=O)(c3ccccc3)c3ccccc3)(c3ccccc3)c3ccccc3)nc21	> 100 µM (inactive)	> 100 µM (inactive)	> 100 µM (inactive)	> 100 µM (inactive)	> 100 µM (inactive)	> 100 µM (inactive)	> 100 µM (inactive)	> 100 µM (inactive)	–	> 100 µM (inactive)	> 100 µM (inactive)	36.3 µM (inactive)	> 100 µM (inactive)	> 100 µM (inactive)	> 100 µM (inactive)	> 100 µM (inactive)	> 100 µM (inactive)	> 100 µM (inactive)	> 100 µM (inactive)
CCOC(C)O[C@H]1C(=O)OCC1(C)C (some centres not stated)	–	34.9 µM (inactive)	> 100 µM (inactive)	–	> 100 µM (inactive)	> 100 µM (inactive)	> 100 µM (inactive)	> 100 µM (inactive)	> 100 µM (inactive)	> 100 µM (inactive)	> 100 µM (inactive)	> 100 µM (inactive)	> 100 µM (inactive)	> 100 µM (inactive)	> 100 µM (inactive)	> 100 µM (inactive)	> 100 µM (inactive)	> 100 µM (inactive)	–
O=C1/C(=C/c2ccc(Cl)cc2)CCC/C1=C\c1ccc(O)c(CN2CCCCC2)c1	26.6 µM (inactive)	24 µM (inactive)	12.9 µM (inactive)	8.57 µM (inactive)	16.6 µM (inactive)	18 µM (inactive)	14.2 µM (inactive)	18.1 µM (inactive)	16.1 µM (inactive)	18.9 µM (inactive)	15.5 µM (inactive)	2.13 µM (inactive)	17.1 µM (inactive)	20.8 µM (inactive)	6.01 µM (inactive)	39 µM (inactive)	–	15.7 µM (inactive)	–
Cc1ccc(C(=O)N/N=C(\N=N\c2cccc(C)c2)c2ccc(N(CCC#N)CCC#N)cc2C)cc1	–	38.9 µM (inactive)	54.7 µM (inactive)	–	47 µM (inactive)	50.5 µM (inactive)	> 100 µM (inactive)	95.3 µM (inactive)	55.2 µM (inactive)	> 100 µM (inactive)	34.3 µM (inactive)	> 100 µM (inactive)	73.1 µM (inactive)	89.5 µM (inactive)	59.8 µM (inactive)	> 100 µM (inactive)	89.1 µM (inactive)	> 100 µM (inactive)	–
[O-][n+]1c(CN2CCCCC2)nc2cccc3c2c1-c1ccccc1-3	17.1 µM (inactive)	> 100 µM (inactive)	22.4 µM (inactive)	12.8 µM (inactive)	29.4 µM (inactive)	28.8 µM (inactive)	28.7 µM (inactive)	18.4 µM (inactive)	16.9 µM (inactive)	25.4 µM (inactive)	23.5 µM (inactive)	> 100 µM (inactive)	17.9 µM (inactive)	15.9 µM (inactive)	–	19.6 µM (inactive)	13.7 µM (inactive)	18.6 µM (inactive)	–
CCN(CC)CCNc1ccc2nnn3c4ccc(OCCN(CC)CC)cc4c(=O)c1c23	32.4 µM (inactive)	6.73 µM (inactive)	66.5 µM (inactive)	30 µM (inactive)	60.3 µM (inactive)	38.2 µM (inactive)	65.3 µM (inactive)	71 µM (inactive)	–	66.1 µM (inactive)	–	–	42.3 µM (inactive)	> 100 µM (inactive)	16.4 µM (inactive)	19.4 µM (inactive)	62.5 µM (inactive)	65.2 µM (inactive)	18.8 µM (inactive)
C=C1CCN2CC[C@@H](OC(=O)/C(C)=C\C)[C@@H]12	> 100 µM (inactive)	> 100 µM (inactive)	> 100 µM (inactive)	> 100 µM (inactive)	> 100 µM (inactive)	> 100 µM (inactive)	> 100 µM (inactive)	> 100 µM (inactive)	> 100 µM (inactive)	> 100 µM (inactive)	> 100 µM (inactive)	–	> 100 µM (inactive)	> 100 µM (inactive)	> 100 µM (inactive)	> 100 µM (inactive)	> 100 µM (inactive)	> 100 µM (inactive)	> 100 µM (inactive)
COC(=O)C1=C(O)C(C(=O)OC)[C@@]2(O)[C@@H](C(=O)OC)[C@H](C)[C@@H](C)[C@@H]1[C@@H]2C(=O)OC (some centres not stated)	> 100 µM (inactive)	> 100 µM (inactive)	22 µM (inactive)	66.1 µM (inactive)	86.5 µM (inactive)	–	–	52.8 µM (inactive)	55.8 µM (inactive)	–	–	45.7 µM (inactive)	> 100 µM (inactive)	67.5 µM (inactive)	60.5 µM (inactive)	89.5 µM (inactive)	13.2 µM (inactive)	> 100 µM (inactive)	26.9 µM (inactive)
O=C1Oc2ccccc2N/C1=C/C(=O)c1ccc(Cl)cc1	> 100 µM (inactive)	> 100 µM (inactive)	66.1 µM (inactive)	62.5 µM (inactive)	> 100 µM (inactive)	–	51.4 µM (inactive)	> 100 µM (inactive)	> 100 µM (inactive)	> 100 µM (inactive)	> 100 µM (inactive)	–	> 100 µM (inactive)	> 100 µM (inactive)	7.96 µM (inactive)	> 100 µM (inactive)	> 100 µM (inactive)	> 100 µM (inactive)	38.1 µM (inactive)
Cc1cc(O)c2c(c1O)C(=O)C1=C(C2=O)C(=O)C2C(O)C1C1C(O)CC(O)=C3C(=O)c4c(O)cc(C)c(O)c4C(=O)C321 (configuration not stated)	2.12 µM (inactive)	1.52 µM (inactive)	1.44 µM (inactive)	0.541 µM (active)	0.658 µM (active)	1.45 µM (inactive)	0.386 µM (active)	1.98 µM (inactive)	0.885 µM (active)	1.75 µM (inactive)	2.36 µM (inactive)	1.1 µM (active)	1.32 µM (inactive)	2.3 µM (inactive)	0.577 µM (active)	2.48 µM (inactive)	–	1.35 µM (inactive)	–
COc1cccc(NC(=O)CC(=O)N2N=C(C)C(/N=N/c3ccc(C(=O)O)cc3)C2=O)c1 (configuration not stated)	> 100 µM (inactive)	–	> 100 µM (inactive)	> 100 µM (inactive)	–	> 100 µM (inactive)	> 100 µM (inactive)	25.4 µM (inactive)	–	> 100 µM (inactive)	46.7 µM (inactive)	> 100 µM (inactive)	> 100 µM (inactive)	> 100 µM (inactive)	> 100 µM (inactive)	> 100 µM (inactive)	> 100 µM (inactive)	> 100 µM (inactive)	43.1 µM (inactive)
CSc1ccc(Nc2cc(=O)[nH]c(=O)[nH]2)cc1	> 100 µM (inactive)	> 100 µM (inactive)	> 100 µM (inactive)	> 100 µM (inactive)	> 100 µM (inactive)	> 100 µM (inactive)	> 100 µM (inactive)	–	> 100 µM (inactive)	> 100 µM (inactive)	–	> 100 µM (inactive)	> 100 µM (inactive)	> 100 µM (inactive)	> 100 µM (inactive)	–	–	> 100 µM (inactive)	> 100 µM (inactive)
CC(C)(C)c1cc(C(CO)OCCOCCO)cc(C(C)(C)C)c1O (configuration not stated)	> 100 µM (inactive)	–	> 100 µM (inactive)	> 100 µM (inactive)	> 100 µM (inactive)	> 100 µM (inactive)	> 100 µM (inactive)	> 100 µM (inactive)	> 100 µM (inactive)	> 100 µM (inactive)	> 100 µM (inactive)	–	> 100 µM (inactive)	> 100 µM (inactive)	> 100 µM (inactive)	> 100 µM (inactive)	> 100 µM (inactive)	> 100 µM (inactive)	> 100 µM (inactive)
COc1ccc2oc(S(=O)(=O)N3CC(CCl)c4ccc(N)cc43)cc2c1 (configuration not stated)	0.119 µM (active)	0.0652 µM (active)	0.0104 µM (active)	0.0419 µM (active)	0.0429 µM (active)	0.0395 µM (active)	0.042 µM (active)	0.084 µM (active)	0.0412 µM (active)	0.0366 µM (active)	0.0445 µM (active)	0.022 µM (active)	0.0767 µM (active)	0.0393 µM (active)	0.0385 µM (active)	0.565 µM (active)	–	0.12 µM (active)	0.0184 µM (active)
COc1cc(O)c2c(=O)c(O)c(-c3ccc(O)c(OC)c3)oc2c1 [RHAMNAZIN]	> 100 µM (inactive)	4.41 µM (inactive)	4.8 µM (inactive)	5.15 µM (inactive)	2.19 µM (inactive)	18.5 µM (inactive)	> 100 µM (inactive)	> 22.3 µM (inactive)	> 26.5 µM (inactive)	3.5 µM (inactive)	> 100 µM (inactive)	4.11 µM (inactive)	> 100 µM (inactive)	4.66 µM (inactive)	2.92 µM (inactive)	–	–	–	2.3 µM (inactive)
